Source: ChEMBL document CHEMBL2074439, “Localization and genomic organization of a new hepatocellular organic anion transporting polypeptide” (J Biol Chem, 2000)

Columns and labels:
[1] = target: T1, OATP8 (OATP1B3, SLCO1B3) (Homo sapiens, UniProt Q9NPD5); assay: (§1) TP_TRANSPORTER: uptake in OATP8-expressing HEK293 cells; assay type: functional, cell-based; settings: HEK293 cells that express OATP8 (OATP1B3)
T1 sequence (Q9NPD5 whole entry): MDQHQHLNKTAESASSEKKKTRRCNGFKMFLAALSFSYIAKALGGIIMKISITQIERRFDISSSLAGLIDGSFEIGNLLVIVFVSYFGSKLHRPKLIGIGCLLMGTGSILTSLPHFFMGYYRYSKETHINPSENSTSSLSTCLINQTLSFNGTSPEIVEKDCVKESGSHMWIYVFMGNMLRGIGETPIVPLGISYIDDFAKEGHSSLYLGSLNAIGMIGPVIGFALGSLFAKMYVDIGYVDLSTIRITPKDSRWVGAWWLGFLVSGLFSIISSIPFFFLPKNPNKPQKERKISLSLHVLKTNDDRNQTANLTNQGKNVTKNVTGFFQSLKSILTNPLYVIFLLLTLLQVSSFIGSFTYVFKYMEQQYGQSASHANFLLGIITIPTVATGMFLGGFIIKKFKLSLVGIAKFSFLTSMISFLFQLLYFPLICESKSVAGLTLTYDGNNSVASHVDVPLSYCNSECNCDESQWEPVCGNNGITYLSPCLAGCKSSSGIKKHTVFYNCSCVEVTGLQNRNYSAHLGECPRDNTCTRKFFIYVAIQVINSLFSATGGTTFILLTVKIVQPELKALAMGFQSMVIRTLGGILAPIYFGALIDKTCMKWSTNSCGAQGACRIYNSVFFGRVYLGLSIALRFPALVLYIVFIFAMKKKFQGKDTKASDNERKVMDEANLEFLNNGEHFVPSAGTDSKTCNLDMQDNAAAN

[2] = target: T2, Solute carrier organic anion transporter family member 1B3 (Homo sapiens, UniProt Q9NPD5); assay: as §1; assay type: functional, cell-based; settings: hek293
T2 sequence (Q9NPD5 whole entry): T1 sequence (Q9NPD5 whole entry)

Row | SMILES | Km [1] [µM] | Km [2] [µM] | Activity [2]
1 | O=C1OC(c2ccc(O)c(S(=O)(=O)O)c2)(c2ccc(O)c(S(=O)(=O)O)c2)c2c(Br)c(Br)c(Br)c(Br)c21 [SULFOBROMOPHTHALEIN SODIUM] | 3.3 | 3.3 | 
2 | C[C@]12CC[C@@H]3c4ccc(O)cc4CC[C@H]3[C@@H]1CC[C@@H]2O[C@@H]1O[C@H](C(=O)O)[C@@H](O)[C@H](O)[C@H]1O [ESTRADIOL 17B GLUCURONIDE] | 5.4 | 5.4 | 
3 | CCCCC/C=C\C\C=C/C=C/C=C/[C@@H](SC[C@@H](NC(=O)CC[C@H](N)C(=O)O)C(=O)NCC(=O)O)[C@@H](O)CCCC(=O)O [LEUKOTRIEN C4] |  |  | substrate [+]
